The values below are quoted from earlier work in patent publication US20120322868A1, “FOOD PRODUCTS, PREPARATION, AND THERAPEUTIC METHODS” (priority 2010, published 2012).

One series has as its system atherosclerosis. Particulars: apolipoprotein E-deficient mice.
In series [1] the test system is immunological functions and plasma albumin. As to conditions: HIV+ patients.
In series [2] the test system is insulin levels and insulin sensitivity. As to conditions: hyperinsulinemic patients with polycystic ovary syndrome.
A further series concerns cancer. Particulars: dietary protein, laboratory animals (Campbell).

In the case of `CC(=O)N[C@@H](CS)C(=O)O` [NAC, N-acetyl-L-cysteine], the atherosclerosis result with atherosclerosis is listed as “reduce atherosclerosis”. Besides, in series [1], the “immunological functions and plasma albumin concentrations” value is “marked increase”. In addition, the “insulin levels and insulin sensitivity” value in series [2] was “improves insulin levels and insulin sensitivity”.
Consider casein, for which the promotion of cancer entry in the series with cancer was “promotes cancer”.
